Test results: patent US20250186391A1, “ORAL COMPLEMENT FACTOR D INHIBITORS” (BioCryst Pharmaceuticals, Inc., priority 2019, published 2025)

Target: Factor D (Homo sapiens (Human), UniProt P00746)
Experiment: Factor D esterolytic assay
Assay type: biochemical
Conditions: Z-Lys-SBzl substrate, 100 mM HEPES, 500 mM NaCl, pH 7.5, 10% DMSO; tested a minimum of three times; read-out: Measured Ki (IC50) Value for Compounds: IC50
Method in brief: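 Chromogenic thioesterase read-out: Z-Lys-SBzl (1.29 mM) hydrolysis by human Factor D, thiol detected with DTNB at 405 nm (690 nm background subtracted) for 600 s. Run in 100 mM HEPES, 500 mM NaCl, pH 7.5, 10% DMSO, substrate added immediately or after room-temperature preincubation. IC50 from percent inhibition versus enzyme alone, n≥3.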

Sequence of Factor D (P00746 26-253): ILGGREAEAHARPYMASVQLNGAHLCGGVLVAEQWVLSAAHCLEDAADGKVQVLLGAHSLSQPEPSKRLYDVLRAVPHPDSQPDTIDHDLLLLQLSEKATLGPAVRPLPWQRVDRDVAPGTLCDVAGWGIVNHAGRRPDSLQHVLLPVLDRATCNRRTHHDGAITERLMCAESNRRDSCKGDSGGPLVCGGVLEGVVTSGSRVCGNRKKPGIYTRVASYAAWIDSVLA

Compound	IC50
Cc1cc(-c2cccc(CN)c2)cc2c(COc3ccccc3CC(=O)O)coc12 [Compound 17e, 2-(2-((5-(3-(aminomethyl)phenyl)-7-methylbenzofuran-3-yl)methoxy)phenyl)acetic acid]	< 1000 nM
NCc1cccc(-c2ccc3c(c2)c(COc2ccccc2CC(=O)O)nn3C2CCC2)c1 [Compound 298d, 2-(2-((5-(3-(aminomethyl)phenyl)-1-cyclobutyl-1H-indazol-3-yl)methoxy)phenyl)acetic acid]	< 1000 nM
NCc1cccc(-c2ccc3occ(COc4cc(CN)ccc4CC(=O)O)c3c2)c1 [Compound 156c, 2-(4-(aminomethyl)-2-((5-(3-(aminomethyl)phenyl)benzofuran-3-yl)methoxy)phenyl)acetic acid]	< 1000 nM
NCc1cccc(-c2ccc3c(c2)c(COc2ccccc2CC(=O)O)nn3C2CCCC2)c1 [Compound 292c, 2-(2-((5-(3-(aminomethyl)phenyl)-1-cyclopentyl-1H-indazol-3-yl)methoxy)phenyl)acetic acid]	< 1000 nM
Cc1nn(C)cc1-c1cc(-c2cccc(CN)c2)cc2c(COc3ccccc3CC(=O)O)coc12 [Compound 134c, 2-(2-((5-(3-(aminomethyl)phenyl)-7-(1,3-dimethyl-1H-pyrazol-4-yl)benzofuran-3-yl)methoxy)phenyl)acetic acid]	< 1000 nM
NCc1cccc(-c2ccc3c(c2)c(COc2ccccc2CC(=O)O)nn3-c2ccncc2)c1 [Compound 265c, 2-(2-((5-(3-(aminomethyl)phenyl)-1-(pyridin-4-yl)-1H-indazol-3-yl)methoxy)phenyl)acetic acid]	< 1000 nM
NCc1cccc(-c2cc(N)c3oc(C(=O)O)c(COc4ccccc4CC(=O)O)c3c2)c1 [Compound 87c, 7-amino-5-(3-(aminomethyl)phenyl)-3-((2-(carboxymethyl)phenoxy)methyl)benzofuran-2-carboxylic acid]	< 1000 nM
Cn1ccc(COc2cc(-c3cccc(CN)c3)cc3c(COc4ccccc4CC(=O)O)coc23)n1 [Compound 198f, 2-(2-((5-(3-(aminomethyl)phenyl)-7-((1-methyl-1H-pyrazol-3-yl)methoxy)benzofuran-3-yl)methoxy)phenyl)acetic acid]	< 1000 nM
Cc1ccc(CC(=O)O)c(OCc2coc3c(C)cc(-c4cccc(CN)c4)cc23)c1 [Compound 313c, 2-(2-((5-(3-(aminomethyl)phenyl)-7-methylbenzofuran-3-yl)methoxy)-4-methylphenyl)acetic acid]	< 1000 nM
Cc1ccc(CC(=O)O)c(OCc2c3cc(-c4cccc(CN)c4)ccc3nn2C)c1 [Compound 211c, 2-(2-((5-(3-(aminomethyl)phenyl)-2-methyl-2H-indazol-3-yl)methoxy)-4-methylphenyl)acetic acid]	< 1000 nM
NCc1cccc(-c2cc(COc3ccccc3CC(=O)O)cc3cc(COc4ccccc4CC(=O)O)oc23)c1 [Compound 7f, 2,2′-((((7-(3-(aminomethyl)phenyl)benzofuran-2,5-diyl)bis(methylene))bis(oxy))bis(2,1-phenylene))diacetic acid]	< 1000 nM
CC(C)n1nc2ccc(-c3cccc(CN)c3)cc2c1COc1ccccc1CC(=O)O [Compound 183e, 2-(2-((5-(3-(aminomethyl)phenyl)-2-isopropyl-2H-indazol-3-yl)methoxy)phenyl)acetic acid]	< 1000 nM
COc1c(CN)cccc1-c1cc(OC)c2occ(COc3ccccc3CC(=O)O)c2c1 [Compound 324d, 2-(2-((5-(3-(aminomethyl)-2-methoxyphenyl)-7-methoxybenzofuran-3-yl)methoxy)phenyl)acetic acid]	< 1000 nM
Cc1nn(C)c(C)c1-c1cc(-c2cccc(CN)c2)cc2c(COc3ccccc3CC(=O)O)coc12 [Compound 268c, 2-(2-((5-(3-(aminomethyl)phenyl)-7-(1,3,5-trimethyl-1H-pyrazol-4-yl)benzofuran-3-yl)methoxy)phenyl)acetic acid]	< 1000 nM
NCc1cccc(-c2cccc3ccc(COc4ccccc4CC(=O)O)cc23)c1 [Compound 99d, 2-(2-((8-(3-(aminomethyl)phenyl)naphthalen-2-yl)methoxy)phenyl)acetic acid]	> 10000 nM
NCc1cccc(-c2ccc3[nH]nc(COc4ccccc4CC(=O)O)c3c2)c1 [Compound 81a, 2-(2-((5-(3-(aminomethyl)phenyl)-1H-indazol-3-yl)methoxy)phenyl)acetic acid]	< 1000 nM
NCc1cccc(-c2ccc3occ(COc4ccccc4C(=O)O)c3c2)c1 [Compound 1f, 2-((5-(3-(aminomethyl)phenyl)benzofuran-3-yl)methoxy)benzoic acid]	< 1000 nM
CC(C)n1nc(C(Oc2ccccc2CC(=O)O)c2ccccc2)c2cc(-c3cccc(CN)c3)ccc21 (centres unmarked) [Compound 228e, 2-(2-((5-(3-(aminomethyl)phenyl)-1-isopropyl-1H-indazol-3-yl)(phenyl)methoxy)phenyl)acetic acid]	> 10000 nM

Compound	IC50
COc1ccc(CC(=O)O)c(OCc2coc3c(C(F)(F)F)cc(-c4cccc(CN)c4)cc23)c1 [Compound 270c, 2-(2-((5-(3-(aminomethyl)phenyl)-7-(trifluoromethyl)benzofuran-3-yl)methoxy)-4-methoxyphenyl)acetic acid]	< 1000 nM
COc1ccc(CC(=O)O)c(OCc2c(C(F)F)oc3c(C4CC4)cc(-c4cccc(CN)c4)cc23)c1 [Compound 234d, 2-(2-((5-(3-(aminomethyl)phenyl)-7-cyclopropyl-2-(difluoromethyl)benzofuran-3-yl)methoxy)-4-methoxyphenyl)acetic acid]	< 1000 nM
COCCc1oc2ccc(-c3cccc(CN)c3)cc2c1COc1ccccc1CC(=O)O [Compound 175h, 2-(2-((5-(3-(aminomethyl)phenyl)-2-(2-methoxyethyl)benzofuran-3-yl)methoxy)phenyl)acetic acid]	< 1000 nM
CC(C)(C)OC(=O)Cc1ccccc1OCc1cc2cc(COc3ccccc3CC(=O)O)cc(-c3cccc(CN)c3)c2o1 [Compound 24a, 2-(2-((7-(3-(aminomethyl)phenyl)-2-((2-(2-(tert-butoxy)-2-oxoethyl)phenoxy)methyl)benzofuran-5-yl)methoxy)phenyl)acetic acid]	< 1000 nM
C[C@@H](N)c1cccc(-c2cc(CC3CCOCC3)c3occ(COc4ccccc4CC(=O)O)c3c2)c1F [Compound 164e, (R)-2-(2-((5-(3-(1-aminoethyl)-2-fluorophenyl)-7-((tetrahydro-2H-pyran-4-yl)methyl)benzofuran-3-yl)methoxy)phenyl)acetic acid]	< 1000 nM
NCc1cccc(-c2cc(/C=C/C3CC3)c3occ(COc4ccccc4CC(=O)O)c3c2)c1 [Compound 132d, (E)-2-(2-((5-(3-(aminomethyl)phenyl)-7-(2-cyclopropylvinyl)benzofuran-3-yl)methoxy)phenyl)acetic acid]	< 1000 nM
NCc1cccc(-c2cc(C#CC3CC3)c3occ(COc4ccccc4CC(=O)O)c3c2)c1 [Compound 294d, 2-(2-((5-(3-(aminomethyl)phenyl)-7-(cyclopropylethynyl)benzofuran-3-yl)methoxy)phenyl)acetic acid]	< 1000 nM
NCc1cccc(-c2cc(CN3CCC(F)(F)CC3)c3occ(COc4ccccc4CC(=O)O)c3c2)c1 [Compound 89e, 2-(2-((5-(3-(aminomethyl)phenyl)-7-((4,4-difluoropiperidin-1-yl)methyl)benzofuran-3-yl)methoxy)phenyl)acetic acid]	< 1000 nM
COc1c(CN)cccc1-c1cc2c(COc3ccccc3CC(=O)O)cccc2o1 [Compound 300d, 2-(2-((2-(3-(aminomethyl)-2-methoxyphenyl)benzofuran-4-yl)methoxy)phenyl)acetic acid]	1000 to 10000 nM
COc1ccc(CC(=O)O)c(OCc2c(C(C)O)oc3ccc(-c4cccc(CN)c4)cc23)c1 (centres unmarked) [Compound 217c, 2-(2-((5-(3-(aminomethyl)phenyl)-2-(1-hydroxyethyl)benzofuran-3-yl)methoxy)-4-methoxyphenyl)acetic acid]	< 1000 nM
COc1ccc(CC(=O)O)c(OCc2c3cc(-c4cccc(CN)c4)ccc3nn2C)c1 [Compound 210c, 2-(2-((5-(3-(aminomethyl)phenyl)-2-methyl-2H-indazol-3-yl)methoxy)-4-methoxyphenyl)acetic acid]	< 1000 nM
Cc1cccc(OCc2coc3ccc(-c4cccc(CN)c4)cc23)c1CC(=O)O [Compound 108d, 2-(2-((5-(3-(aminomethyl)phenyl)benzofuran-3-yl)methoxy)-6-methylphenyl)acetic acid]	< 1000 nM
NCc1cccc(-c2cc3c(COc4ccccc4CC(=O)O)coc3c3ccoc23)c1F [Compound 287b, 2-(2-((5-(3-(aminomethyl)-2-fluorophenyl)benzo[1,2-b:3,4-b′]difuran-3-yl)methoxy)phenyl)acetic acid]	< 1000 nM
Cn1nc(Nc2ccccc2CC(=O)O)c2cc(-c3cccc(CN)c3)ccc21 [Compound 77d, 2-(2-((5-(3-(aminomethyl)phenyl)-1-methyl-1H-indazol-3-yl)amino)phenyl)acetic acid]	> 10000 nM
CC(C)(C)OC(=O)c1oc2ccc(-c3cccc(CN)c3)cc2c1COc1ccccc1CC(=O)O [Compound 86b, 2-(2-((5-(3-(aminomethyl)phenyl)-2-(tert-butoxycarbonyl)benzofuran-3-yl)methoxy)phenyl)acetic acid]	< 1000 nM
Cn1nc(NC(=O)c2ccccc2CC(=O)O)c2cc(-c3cccc(CN)c3)ccc21 [Compound 74d, 2-(2-((5-(3-(aminomethyl)phenyl)-1-methyl-1H-indazol-3-yl)carbamoyl)phenyl)acetic acid]	< 1000 nM
NCc1cccc(-c2ccc3occ(C(=O)Nc4ccccc4CC(=O)O)c3c2)c1 [Compound 10c, 2-(2-(5-(3-(aminomethyl)phenyl)benzofuran-3-carboxamido)phenyl)acetic acid]	< 1000 nM
